# Results: patent US7534892B2, “Sulfonamide compound” (Shionogi & Co., Ltd., priority 2004, dated 2009)
# Where two headings read alike, the source gives them in different places.
# System: food intake of rats
# Assay: Antifeeding activity: food intake after intracerebroventricular infusion of NPYY5 agonist
# Format: in vivo
# Conditions: Rattus norvegicus, compound 30 mg/kg oral, 0.1 nmol NPYY5 agonist infused one hour later
# Method: A guide cannula was implanted in ventriculus lateralis of 7-week-old rats (200-300 g) reared in free-feeding. Then the rats reared in free-feeding about for 1 week.
# A compound of the present invention was suspended in 0.5% HPMC solution (hydroxypropylmethylcellulose: 60SH-50, Shin-Etsu Chemical Co., Ltd.) to get a final concentration of 15 mg/ml.
# Rats were given 2 mL/kg of a suspension of a compound of the present invention (the compound 30 mg/kg) by oral administration. On the other hand, rats in a control group were given the same amount of 0.5% HPMC by oral administration.
# NPYY5 agonist ([cPP^1-7, NPY^19-23, Ala^31, Aib^32, Gln^34]-hPancreatic Polypeptide: Tocris Coockson) was dissolved in a physiological salt solution to be 0.1 nmol/10 μL. 0.1 nmol of the solution was infused via a guide cannula in a head of the rat one hour after giving a compound of the present invention. Immediately after the infusion, the amount of the remaining food was measured.
# The amount of the remaining food was measured 1, 2 or 4 hour(s) after the infusion of an agonist and the food intake for this period was calculated. An antifeeding rate of a compound of the present invention against the food intake of rats in a control group was calculated.
# [1] = food intake 1 h after infusion vs control group, read-out: Antifeeding activity (%) 1 h
# [2] = food intake 2 h after infusion vs control group, read-out: Antifeeding activity (%) 2 h
# [3] = food intake 4 h after infusion vs control group, read-out: Antifeeding activity (%) 4 h
Compound,inhibition in vivo at 30 mg/kg [1],inhibition in vivo at 30 mg/kg [2],inhibition in vivo at 30 mg/kg [3]
CCS(=O)(=O)N[C@H]1CC[C@H](C(=O)Nc2ccc(OCC(F)(F)F)nc2)CC1 [Ia-2],98%,77%,56%
CCS(=O)(=O)NCCCCC(=O)Nc1ccc(OCC(F)(F)F)nc1 [Ia-3],85%,78%,74%
CCS(=O)(=O)N[C@H]1CC[C@H](C(=O)Nc2ccc(N3C[C@@H](C)O[C@@H](C)C3)cc2)CC1 [Ib-1],90%,95%,92%
CCn1c2ccccc2c2cc(NC(=O)[C@H]3CC[C@H](NS(=O)(=O)CC)CC3)ccc21 [Id-1],5%,37%,49%
CCn1c2ccccc2c2cc(NC(=O)CCCCNS(=O)(=O)CC)ccc21 [Id-2],100%,100%,100%
CCS(=O)(=O)NCCCCC(=O)Nc1ccc2c(c1)c1c(n2C(C)C)CCCC1 [Id-4],100%,94%,95%
CCn1c2ccccc2c2cc(NC(=O)CCNS(=O)(=O)CC(F)(F)F)ccc21 [Ig-1],67%,44%,48%
CN(C)S(=O)(=O)N[C@H]1CC[C@H](C(=O)Nc2ccc(C(F)(F)F)cc2)CC1 [Ii-1],42%,38%,31%
